This test relates to MDA-MB-468 breast. The experiment in a line: DTP human tumour cell line panel, 48 h.

“And” between values parts separate entries of the source, which are not always exact repeats. Equal values may be shown once.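 Where inhibition never reached the appropriate level, the endpoint shown equals the highest concentration tested. Otherwise, values were interpolated linearly from a five-concentration, 48-hour dose response in 96-well plates. GI50: concentration for 50% inhibition of growth. TGI is the concentration that stops growth completely.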

For `COc1ccc(Cn2cc3c(c2-c2cc(OC)c(OC)c(OC)c2)CCc2cnoc2-3)cc1[N+](=O)[O-]`, the GI50 is 0.376 µM and the TGI is 4.22 µM.

Consider `COc1ccc(C(=O)COc2cccc(/C=C3\CSc4ccc(C)cc4C3=O)c2)cc1`, for which the GI50 was 4.84 µM and the TGI came to 36.9 µM.

Turning to `COc1cnc2c(c1)C(=O)c1c-2n(CCCN2CCCC2)c(=O)c2cc(F)ccc12`, the GI50 is 0.175 µM and the TGI was 0.517 µM.

Consider `CCOC(=O)c1cc2c(n1Cc1ccccc1)-c1oncc1CC2`, for which the GI50 is 2.19 µM and the TGI came to 7.76 µM.

With `O=C(CCCCCCSc1nc(-c2ccc(Cl)cc2)cc(-c2ccc(Cl)cc2)n1)NO`, the GI50 is 1.62 µM and the TGI turned out to be 6.38 µM.

As to `COc1ccc(-c2nc3cc(Cl)c(Cl)cc3n2CC(=O)N=Nc2c(O)[nH]c3ccc(Cl)cc23)cc1`, the GI50 was 1.7 µM and the TGI is 3.4 µM.

Consider `C#Cc1cccc(Nc2nc3ccc([N+](=O)[O-])cc3nc2Nc2cccc(C#C)c2)c1`, for which the GI50 was 0.174 µM and the TGI came out at 0.499 µM.

Regarding `CCC1CCc2nc3sc(C(=O)Nc4ccccc4C)c(N)c3cc2C1` (centres undefined), the GI50 is 0.244 µM and the TGI was 0.742 µM.

In the case of `N[C@@H]1CCCN(c2c(/C=C3\SC(=O)NC3=O)cccc2-c2ccccc2)C1`, the GI50 was 9.54 µM and the TGI was determined as 24.5 µM.

Take `C/C(Cc1ccc(Cl)cc1)=C(/c1ccc(Cl)cc1)c1ccc(OCCN(C)C)cc1`: the GI50 is 2.97 µM and the TGI is 7.76 µM.

Regarding `O=C1CCc2c(sc3[nH]c(=S)n(Cc4ccccc4)c(=O)c23)C1`, the GI50 is 2.95 µM and the TGI came out at 9.31 µM.

In the case of `CC(=O)OCC1O[C@@H]([S-])C(OC(C)=O)[C@H](OC(C)=O)[C@@H]1OC(C)=O.[Au+].c1ccc(CN2[CH-]N(Cc3ccccc3)C(c3ccccc3)=C2c2ccccc2)cc1`, the GI50 was 1.54 µM and the TGI worked out at 3.26 µM.

Turning to `Cc1ccc(S(=O)(=O)Cc2nc(-c3ccc(C(=O)NCc4cccnc4)cc3)oc2C)cc1`, the GI50 is 4.74 µM and the total growth inhibition concentration (TGI) is above 100 µM.

`CCN1C(=O)N(c2ccccc2)C2NN=c3s/c(=C4\C(=O)N(C(C)C)c5ccccc54)c(=O)n3C21` (centres undefined): the GI50 was 0.817 µM and the concentration for total growth inhibition (TGI) was 4.18 µM.

On to `O=C(OCc1ccc2c(Cl)cc(Cl)c(O)c2n1)c1cc2ccccc2[nH]1`, for which the GI50 is 0.238 µM and the TGI turned out to be 0.626 µM.

For `CCCCn1sc(=O)n(Cc2ccc(CNC(=O)OCc3ccc4c(Br)cc(Br)c(O)c4n3)cc2)c1=O`, the GI50 is 0.388 µM and the TGI is above 100 µM.

`Nc1c(C(=O)Nc2ccccc2F)sc2nc3c(cc12)C(=O)CCC3`: the concentration for 50% growth inhibition (GI50) was 0.247 µM and the concentration for total growth inhibition (TGI) is 0.956 µM.

As to `CC1=C[S+](c2ccccc2)c2cccc3cc4ccccc4c1c23` (centres undefined), the GI50 is 0.0785 µM and the TGI came out at 0.766 µM.

For the compound `COc1cccc(C2C3=C(COC3=O)Oc3cc4c(cc32)OCO4)c1` (centres undefined), the GI50 is 0.0817 µM and the TGI was above 100 µM.

For the compound `CCCCCCCC(=O)SCC/C=C/[C@@H]1CC(=O)NCc2nc(co2)C2=N[C@@](C)(CS2)C(=O)N[C@@H](C(C)C)C(=O)O1`, the GI50 was 0.0291 µM and the TGI amounted to 23.5 µM.

On to `CC(=O)[O][Hg][c]1ccccc1`, for which the 50% growth inhibitory concentration (GI50) was 0.154 µM and the TGI came out at 0.341 µM.

For `CS(=O)(=O)CCNCc1ccc(-c2ccc3ncnc(Nc4ccc(OCc5ccccc5)c(Cl)c4)c3c2)o1`, the GI50 was 0.0107 µM and the TGI came to 0.196 µM.

`CN(C[C@@H]1COCCO1)S(=O)(=O)Nc1ccc2ccc3ncc(-c4cnn(C)c4)cc3c(=O)c2c1`: the GI50 is 7.13 µM and the TGI is above 100 µM.

In the case of `c1ccc(Cn2c(-c3ccc(OC[C@H](C4CCNCC4)n4c(-c5ccccc5)nc5ccccc54)cc3)nc3ccccc32)cc1`, the GI50 is 1.12 µM and the TGI turned out to be 2.46 µM.

With `C/C(=C\c1ccc(Cl)c(Cl)c1)[N+](=O)[O-]`, the GI50 is 1.55 µM and the TGI was 3.02 µM.

For the compound `Cc1nc2n(c(=O)c1CCN1CCC(c3noc4cc(F)ccc34)CC1)CCCC2`, the GI50 was 34 µM and the concentration for total growth inhibition (TGI) was above 50 µM.

`O=C(O)c1ccc2c(c1)nc(Nc1cccc(Cl)c1)c1ccncc12`: the GI50 is 1.05 µM and 1.67 µM; the TGI was 4.84 µM and 8.97 µM.

Regarding `CN(CCCl)c1ccc(/C=C/C2=[N+](C)c3ccccc3C2(C)C)cc1`, the GI50 was 0.353 µM and the TGI is 1.69 µM.

On to `CNCCCNc1nc2ccccc2c2c(=O)c3cc(Cl)ccc3sc12`, for which the GI50 is 1.26 µM and the total growth inhibition concentration (TGI) was 2.83 µM.

Consider `CCCSC1=NC2C(N(CC)C(=O)N2CC)N1/N=C/C=C/c1ccccc1[N+](=O)[O-]` (centres undefined), for which the GI50 was 3.06 µM and the TGI was above 100 µM.

For the compound `O=[N+]([O-])c1ccc2ncccc2c1Cl`, the GI50 was 1.87 µM and the TGI turned out to be 4.81 µM.

Consider `CCCCCc1ccc(S(=O)(=O)N(C(C)=O)c2cccc(-c3csc(N(CCN4CCN(C)CC4)C(C)=O)n3)c2)cc1`, for which the GI50 was 0.735 µM and the TGI stood at 2.71 µM.

Turning to `CCCCCc1ccc(S(=O)(=O)Nc2cc(-c3csc(NC(=O)CN4CCN(C)CC4)n3)ccc2OC)cc1`, the GI50 is 0.917 µM and the TGI was determined as 2.11 µM.

As for `COc1ccc(C(=O)c2cc3c(N)c(C(=O)Nc4cccc(Cl)c4C)sc3nc2C)cc1`, the 50% growth inhibitory concentration (GI50) is 0.0707 µM and the TGI stood at 1.22 µM.

As to `COc1ccc(-c2cc(-c3cc(OC)c(OC)c(OC)c3)c(C#N)c(N3CCOCC3)n2)cc1O`, the GI50 is 13.4 µM and the TGI is above 100 µM.

Turning to `COc1cc2nc3cc([N+](=O)[O-])ccc3c(NCCCNCC(C)(C)O)c2cc1OC`, the GI50 is 0.23 µM and the concentration for total growth inhibition (TGI) turned out to be 0.57 µM.

In the case of `COc1ccccc1S(=O)(=O)Nc1ccc2c(c1)CN(C)C(=O)N2`, the GI50 was 2.4 µM and 1.44 µM; the TGI was > 56.1 µM and 50.3 µM.

Turning to `Cc1c(NC(=O)OC[C@@H]2COCCN2)cn2ncnc(Nc3ccc4c(cnn4Cc4cccc(F)c4)c3)c12`, the GI50 is 0.12 µM and 0.0454 µM; the TGI was 1.12 µM and 0.329 µM.

For `C#CCOc1cccc(Nc2ncnc3ccc(NC(=O)CCl)cc23)c1`, the GI50 was 3.16 µM and the TGI was found to be 27.2 µM.

With `C=C1C(=O)O[C@H]2[C@H]1CC/C(COC(=O)c1ccc(C#N)cc1)=C\CC[C@@]1(C)O[C@@H]21`, the GI50 is 1.03 µM and the concentration for total growth inhibition (TGI) was found to be 3.13 µM.

As for `O=C(O)C1(Cc2cccc(Nc3nccs3)n2)CCC(Oc2cccc(Cl)c2F)CC1` (centres undefined), the GI50 is 0.526 µM and the total growth inhibition concentration (TGI) was 34.6 µM.

Regarding `CCOC(=O)Nc1ccc(-c2nc(-c3cccc(OC)c3)c(-c3ccnc(Br)c3)[nH]2)cc1`, the GI50 was 1.67 µM and the TGI was found to be 4.91 µM.

Values taken from PubChem BioAssay (NCI).
